Reference: patent publication US5473057A, “Eleutherobin and analogs thereof” (The Regents of the University of California, priority 1994, dated 1995)
pIC50: −log10 of the molar value. “Also recorded” adds a separate entry of the source. Where two headings read alike, the source gives them in different places.

Legend:
[1] = in words, background art; cited from earlier work
[2] = test system: HCT116/VM46 human colon carcinoma subline, which overexpresses P-glycoprotein; assay: In vitro cytotoxicity in multidrug resistant subline HCT116/VM46 (XTT assay); assay type: cell-based; details: for fold resistance relative to corresponding parent cell line: HCT116/VM46 relative to HCT116, 4320 min; for pIC50: Homo sapiens, HCT-116/VM46, HCT116/VM46, 72 hour exposure, XTT assay
Description: (§1) Eleutherobin and the above described analogs are useful as cytotoxic agents. The compounds are used in the same manner as other known cytotoxic agents. They may be used alone or in combination with suitable pharmaceutical carriers and other bioactive materials. They are used both in vitro and in vivo to kill a wide variety of cell types. […] For example, in vitro toxicity of eleutherobin was tested in the HCT116 human colon carcinoma cell line and a multidrug resistant subline, HCT116/VM46, which overexpresses P-glycoprotein and is over 100-fold resistant to taxol. […] The cytotoxicity of eleutherobin was also tested in a human ovarian carcinoma cell line A2780. Eleutherobin was also found to be cytotoxic with respect to the A2780 cell line.
(§2) ^1 Cytotoxicity was determined after 72 hour exposure by XTT assay.
^2 Value in parenthesis is fold resistance relative to corresponding

[3] = test system: HCT116 human colon carcinoma cell line; assay: In vitro cytotoxicity in HCT116 (XTT assay); assay type: cell-based; details: for pIC50: Homo sapiens
Description: as §1, §2

[4] = test system: human ovarian carcinoma cell line A2780; assay: In vitro cytotoxicity in A2780 (XTT assay); assay type: cell-based; details: for pIC50: Homo sapiens
Description: as §1, §2

cancer cells = assay: Cytotoxicity, general statement; assay type: cell-based; details: in words

Structure (SMILES): CC1=CC(=O)[C@H](C(C)C)[C@H]2/C=C(/C)[C@@]3(O)C=C[C@](C)(O3)[C@@H](OC(=O)Cc3ccccc3)C[C@@H]12 [Valdivone B]
- anti-inflammatory activity [1]: anti-inflammatory activity

Structure (SMILES): CO[C@]12C=C[C@](C)(O1)[C@@H](OC(=O)/C=C/c1cn(C)cn1)C[C@H]1C(C)=CC[C@H](C(C)C)[C@H]1/C=C\2COC1OCC(O)C(O)C1OC(C)=O (some centres unmarked) [Eleutherobin]
- fold resistance relative to corresponding parent cell line [2]: 52 fold
- pIC50 [2]: 6.26
- pIC50 ([3]; HCT-116, 72 h): 7.97
- cytotoxicity in the HCT116 cell line compared with taxol ([3]; in words, HCT116): nearly as cytotoxic as taxol
- pIC50 ([4]; A2780, 72 h): 7.86
- cytotoxicity with respect to the A2780 cell line ([4]; in words, A2780): cytotoxic
- cytotoxicity (cancer cells): effective cytotoxin; also recorded: cytotoxic with respect to cancer cells

Structure (SMILES): CC(=O)O[C@H]1C(=O)[C@@]2(C)[C@H]([C@H](OC(=O)c3ccccc3)[C@]3(O)C[C@H](OC(=O)[C@H](O)[C@@H](NC(=O)c4ccccc4)c4ccccc4)C(C)=C1C3(C)C)[C@]1(OC(C)=O)CO[C@@H]1C[C@@H]2O [paclitaxel (taxol), paclitaxel]
- fold resistance relative to corresponding parent cell line [2]: 117 fold
- fold resistance relative to corresponding parent cell line ([2]; listed as taxol): over 100 fold
- pIC50 [2]: 8.27
- pIC50 ([3]; HCT-116, HCT116, 72 hour exposure, XTT assay, read-out: IC50): 8.34
- pIC50 ([4]; A2780, 72 hour exposure, XTT assay, read-out: IC50): 8.17

Structure (SMILES): CC(C)=CC(=O)O[C@H]1C[C@H]2C(C)=CC(=O)[C@H](C(C)C)[C@H]2/C=C(/C)[C@@]2(O)C=C[C@]1(C)O2 [Valdivone A]
- anti-inflammatory activity [1]: anti-inflammatory activity
